Laboratory results: patent US20210205260A1, “MP53 RESCUE COMPONDS AND METHODS OF TREATING A P53 DISORDER” (priority 2018, published 2021)

Assays:
p53 = experiment: Inductively coupled plasma mass spectroscopy (ICP-MS), arsenic per p53; format: binding
From the text: We further discovered that elemental arsenic, elemental bismuth, elemental antimony, and compounds containing elemental arsenic, bismuth, and/or antimony are good rescue compounds for mp53. […] The arsenic-, bismuth-, and antimony-mediated mp53 rescue is achieved by binding of the released arsenic, bismuth, and antimony to mp53. […] The arsenic-, bismuth-, and antimony-mediated mp53 rescue also elevates mp53 Tm. […] Moreover, these rescue compounds can also rescue one or more mp53s.

mp53 [1] = experiment: PAb1620 immunoprecipitation, structural rescuability of indicated mp53s (with/without ATO); format: cell-based, human; settings: for Str. Res: Table 9, structurally rescuable by PANDA Agent ATO, label = mp53; for 1620 TP (PAb1620 immunoprecipitation efficiency): presence vs absence of ATO, cell line not indicated in this part of Table 9; for Str. Res. (whether the mp53 is structurally rescuable): Table 8, label = mp53 mutation, rescue agent ATO
Protocol: (§1) For p53 folding assay, H1299 cells transfected with indicated TP53 were treated with 1 μg/ml ATO for 2 hr, and cells were lysed followed by immunoprecipitation using PAb1620. Immunoprecipitated p53 was immunoblotted. Experiments are repeated twice. For p53 transcriptional activity assay, H1299 cells were co-transfected with indicated TP53 and PUMA reporter for 24 hr, followed by treatment of 1 μg/ml ATO for 24 hr. […] X-axis: PAb1620 IP efficiency; Y-axis: PUMA luciferase report signal. Hollow cycles: without ATO treatment; solid cycles: with ATO treatment.
NP40 buffer at room temperature.

mp53 [2] = experiment: Functional rescuability of indicated mp53s (Luciferase, qPCR and/or Western blot); format: cell-based, human; settings: for Func. Res: Table 9, functionally rescuable by PANDA Agent ATO, label = mp53; for Func. Res. (whether the mp53 is functionally rescuable): Table 8, label = mp53 mutation, rescue agent ATO
Protocol: as §1
Cells were plated at a concentration of 2×10^4 cells/well in 24-well plates, followed by transfection of luciferase reporter plasmids for 24 hr. All transfection contained 300 ng p53 expressing plasmid, 100 ng of luciferase reporter plasmid and 5 ng of renilla plasmid per well. After agent treatment, cells were lysed in luciferase reporter assay buffer and determined using a luciferase assay kit (Promega). Activities of luciferase were divided by that of renilla to normalize the transfection efficiency.
Total RNA was isolated from cells using Total RNA Purification Kit (B518651, Sangon Biotech). 1 μg total RNA was reverse-transcribed using the GoScript®™ Reverse Transcriptase System (A5001, Promega) following manufacturer's protocol. PCR was performed in triplicate using SYBR green mix (Applied Biosystems), and a ViiA™ 7 Real-Time PCR System (Applied Biosystems) under the following conditions: 10 min at 95° C. followed by 40 cycles of 95° C. for 15 s and 60° C. for 1 min. Specificity of the PCR product was checked for each primer set and samples from the melting curve analysis. Expression levels of targeted genes were normalized relative to levels of β-actin adopting comparative Ct method. The primer sequences are as follows: MDM2 forward 5′-[…]-3′, reverse 5′-[…]-3′; PIG3 forward 5′-[…]-3′, reverse 5′-[…]-3′; PUMA forward 5′-[…]-3′, reverse 5′-[…]-3′; p21 forward 5′-[…]-3′, reverse 5′-[…]-3′; Bax forward 5′-[…]-3′, reverse 5′-[…]-3′; #-actin forward 5′-[…]-3′, reverse 5′-[…]-3′.

[3] = Representative effective dose for mouse studies (Table 15); format: in vivo; settings: oral
Protocol: The PANDA Agent comprising a three and/or five valence arsenic is generally effective in treating cancer in a subject, including an animal, at a dose at a wide range of dosages by intravenous injection and oral administration. In certain embodiments, the daily dosage is from about 0.5 mg/kg to about 50 mg/kg, preferably from about 0.5 mg/kg to about 25 mg/kg, more preferably from about 1 mg/kg to about 25 mg/kg, more preferably from about 1 mg/kg to about 15 mg/kg, more preferably from about 1.7 mg/kg to about 15 mg/kg, and more preferably from about 1.7 mg/kg to about 5 mg/kg. In certain embodiments, the dose is about 5 mg/kg. In certain embodiments, the PANDA Agent ATO is administered by intravenous injection or by oral administration at 1 mg/ml concentration, at a dose of 5 mg/kg per day.
In other embodiments, the daily dosage is from about 10 mg/kg to about 1000 mg/kg, preferably from about 10 mg/kg to about 500 mg/kg, more preferably from about 20 mg/kg to about 500 mg/kg, more preferably from about 20 mg/kg to about 300 mg/kg, more preferably from about 33 mg/kg to about 300 mg/kg, and more preferably from about 33 mg/kg to about 100 mg/kg. In certain embodiments, the dose is about 100 mg/kg. In certain embodiments, the PANDA Agent As2S2, As2S3, As2S5, and As4S4 is administered by oral administration at 15 mg/L concentration, at a dose of 100 mg/kg
(§2) The PANDA Agent comprising a three valence and/or five valence antimony is generally effective in treating cancer in a subject, including an animal, at a dose at a wide range of dosages by intravenous injection and oral administration. In certain embodiments, dosage is from about 60 mg/kg to about 6000 mg/kg, preferably from about 60 mg/kg to about 3000 mg/kg, more preferably from about 120 mg/kg to about 3000 mg/kg, more preferably from about 120 mg/kg to about 1500 mg/kg, more preferably from about 150 mg/kg to about 1200 mg/kg, and more preferably from about 300 mg/kg to about 1200 mg/kg. In certain embodiments, the dose is about 600 mg/kg. In certain embodiments, the PANDA Agent is administered by intravenous or oral administration at 100 mg/ml concentration, at a dose of 600 mg/kg per day.
as §2, with “bismuth” for “antimony”, “embodiments, the daily” for “embodiments,”, “In certain embodiments, the dose is about 600 mg/kg. In certain embodiments, the PANDA Agent is administered by intravenous or oral administration at 100 mg/ml concentration, at a dose of 600 mg/kg per day.” left out

[4] = Representative effective dose in humans (Table 16); format: in vivo, human; settings: oral
From the text: The PANDA Agent comprising a three and/or five valence arsenic is generally effective in treating cancer in a human at a wide range of dosages by intravenous injection and oral administration.
The PANDA Agent comprising a three and/or five valence antimony is generally effective in treating cancer in a human at a wide range of dosages by intravenous injection and oral administration. In certain embodiments, the effective dose results in a maximum Sb concentration in the patient's blood (plasma) from about 3.58 mg/L to about 357.5 mg/L, preferably from about 3.58 mg/L to about 179 mg/L, more preferably from about 7.15 mg/L to about 179 mg/L, more preferably from about 7.15 mg/L to about 107 mg/L, more preferably from about 12 mg/L to about 107 mg/L, more preferably from about 32.7 to about 38.8 mg/L. In certain embodiments, the daily dose is from about 20 mg/kg, wherein the maximum Sb concentration is from about 32.7 mg/L to about 38.8 mg/L, and wherein the platform Sb concentration in blood (plasma) is about 3.5 mg/L.
The PANDA Agent comprising a three and/or five valence bismuth is generally effective in treating cancer in a human at a wide range of dosages by intravenous injection and oral administration. In certain embodiments, the effective dose results in a maximum Bi concentration in the patient's blood (plasma) from about 3 mg/L to about 300 mg/L, preferably from about 3 mg/L to about 150 mg/L, more preferably from about 6 mg/L to about 150 mg/L, more preferably from about 6 mg/L to about 90 mg/L, more preferably from about 10 mg/L to about 90 mg/L, more preferably from about […]. In certain embodiments, the daily dose is from about 20 mg/kg, wherein the maximum Bi concentration is from about 32.7 mg/L to about 38.8 mg/L, and wherein the platform Bi concentration in blood (plasma) is about 3.5 mg/L.

APL patients = settings: orally administrated; cited from earlier work
mp53 [5] = experiment: mp53 rescue profile (either structurally or functionally rescuable); format: cell-based, human; settings: Table 8; label = mp53 mutation; rescue agent ATO
[6] = presence vs absence of ATO, cell line not indicated

Compound	Str. Res (mp53 [1])	1620 TP (PAb1620 immunoprecipitation efficiency) (mp53 [1]) [fold]	Func. Res (mp53 [2])	Luciferase Assay PUMA (mp53 [2]; [6]) [fold]	Representative effective dose: Dose per day [3] [mg/kg]	Maximun Metal concentration in blood (plasma) [4] [mg/L]	Platform Metal concentration in blood (plasma) [4]	Representative effective dose: Dose per day [4] [mg/kg]	also measured
[AsH3] [arsenic]	–	–	–	–	–	–	–	–	arsenic bound per p53 (ICP-MS) (p53): 0.93±0.19 arsenic per p53
D281H	Yes (can be rescured by the PANDA Agent ATO, as measured to a 1.5 fold or more increase in PAb1620 immunoprecipitation signal)	2.1	Yes (the PANDA Agent can rescue one or more of the mp53's wild type function to a 1.5 fold or more, as measured by luciferase assay, qPCR, or Western blot)	2.2	–	–	–	–	–
S=[As][As]=S (centres unmarked) [As2S2]	–	–	–	–	100	0.57 to 1.31	0.03 to 0.07 mg/L	2.80	–
S=[As](=S)S[As](=S)=S [As2S5]	–	–	–	–	100	–	–	4.05	–
S=[As]S[As]=S (centres unmarked) [As2S3]	–	–	–	–	100	0.57 to 1.31	0.03-0.07 L mg/L	3.20	–
S1[As]2S[As]3S[As]2S[As]13 [As4S4, reference compound]	–	–	–	–	100	0.57 to 1.31	0.03 to 0.07 mg/L	2.80	efficacy in treating APL patients (in words) (APL patients): as effective as conventional intravenous ATO
H179P	–	–	–	–	–	–	–	–	Str. Res. (whether the mp53 is structurally rescuable) (mp53 [1]): Yes; Func. Res. (whether the mp53 is functionally rescuable) (mp53 [2]): Yes; Res. (either structurally or functionally rescuable) (mp53 [5]): Yes
H179R	Yes (can be rescured by the PANDA Agent ATO, as measured to a 1.5 fold or more increase in PAb1620 immunoprecipitation signal)	4.6	Yes (the PANDA Agent can rescue one or more of the mp53's wild type function to a 1.5 fold or more, as measured by luciferase assay, qPCR, or Western blot)	1.8	–	–	–	–	Luciferase Assay CDKNIA (mp53 [2]; [6]): 1.0 fold
R283H	Yes (can be rescured by the PANDA Agent ATO, as measured to a 1.5 fold or more increase in PAb1620 immunoprecipitation signal)	1.6	Yes (the PANDA Agent can rescue one or more of the mp53's wild type function to a 1.5 fold or more, as measured by luciferase assay, qPCR, or Western blot)	1.6	–	–	–	–	Str. Res. (whether the mp53 is structurally rescuable) (mp53 [1]): Yes; Func. Res. (whether the mp53 is functionally rescuable) (mp53 [2]): Yes; Res. (either structurally or functionally rescuable) (mp53 [5]): Yes
